Reference: PMC5666424, “Marine-Derived 2-Aminoimidazolone Alkaloids. Leucettamine B-Related Polyandrocarpamines Inhibit Mammalian and Protozoan DYRK & CLK Kinases” (Marine Drugs, 2017)

Key:
Experiment in all cases: KinomeScan
Assay type in all cases: binding
Conditions in all cases: 1 μM
ABL1-phosphorylated = molecular target: T1, ABL1-phosphorylated (Homo sapiens, UniProt P00519)
T1 construct: purchased DiscoverX (KINOMEscan)

ABL2 = molecular target: T2, ABL2 (Homo sapiens, UniProt P42684)
T2 construct: purchased DiscoverX (KINOMEscan)
T2 sequence (P42684 whole entry): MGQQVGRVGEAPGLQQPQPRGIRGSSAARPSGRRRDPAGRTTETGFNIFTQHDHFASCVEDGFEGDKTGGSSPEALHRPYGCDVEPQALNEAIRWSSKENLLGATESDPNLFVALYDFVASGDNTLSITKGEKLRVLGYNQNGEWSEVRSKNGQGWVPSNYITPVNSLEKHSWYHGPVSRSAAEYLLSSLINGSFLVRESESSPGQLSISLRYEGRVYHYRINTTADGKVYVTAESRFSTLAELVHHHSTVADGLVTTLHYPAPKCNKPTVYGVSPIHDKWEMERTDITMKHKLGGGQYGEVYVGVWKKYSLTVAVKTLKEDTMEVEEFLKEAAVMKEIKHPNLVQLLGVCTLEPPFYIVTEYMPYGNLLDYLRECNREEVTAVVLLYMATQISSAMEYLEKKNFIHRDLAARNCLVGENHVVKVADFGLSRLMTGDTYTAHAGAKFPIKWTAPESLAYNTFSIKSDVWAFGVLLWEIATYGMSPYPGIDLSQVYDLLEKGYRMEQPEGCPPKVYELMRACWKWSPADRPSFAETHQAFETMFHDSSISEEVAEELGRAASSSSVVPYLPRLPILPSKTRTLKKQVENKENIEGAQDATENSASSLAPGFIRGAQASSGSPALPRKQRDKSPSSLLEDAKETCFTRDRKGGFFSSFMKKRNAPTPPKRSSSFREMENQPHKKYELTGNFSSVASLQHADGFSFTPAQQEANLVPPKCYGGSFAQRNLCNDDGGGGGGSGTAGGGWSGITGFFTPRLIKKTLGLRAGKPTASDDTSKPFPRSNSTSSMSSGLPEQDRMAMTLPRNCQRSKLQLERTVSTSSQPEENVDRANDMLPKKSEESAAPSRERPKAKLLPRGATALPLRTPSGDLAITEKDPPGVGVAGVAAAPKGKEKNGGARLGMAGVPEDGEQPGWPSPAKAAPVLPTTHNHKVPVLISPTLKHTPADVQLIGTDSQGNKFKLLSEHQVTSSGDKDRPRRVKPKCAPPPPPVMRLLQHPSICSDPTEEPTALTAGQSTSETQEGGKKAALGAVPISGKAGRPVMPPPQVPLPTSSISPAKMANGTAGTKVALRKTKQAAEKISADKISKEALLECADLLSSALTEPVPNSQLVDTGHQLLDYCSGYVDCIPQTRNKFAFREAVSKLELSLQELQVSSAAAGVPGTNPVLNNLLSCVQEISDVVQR

ADCK3 = molecular target: T3, ADCK3 (Homo sapiens, UniProt Q8NI60)
T3 construct: purchased DiscoverX (KINOMEscan)

ADCK4 = molecular target: T4, ADCK4 (Homo sapiens, UniProt Q96D53)
T4 construct: purchased DiscoverX (KINOMEscan)

ANKK1 = molecular target: T5, ANKK1 (Homo sapiens, UniProt Q8NFD2)
T5 construct: purchased DiscoverX (KINOMEscan)

ASK2 = molecular target: T6, ASK2 (Homo sapiens, UniProt O95382)
T6 construct: purchased DiscoverX (KINOMEscan)

CASK = molecular target: T7, CASK (Homo sapiens, UniProt O14936)
T7 construct: purchased DiscoverX (KINOMEscan)
T7 sequence (O14936 whole entry): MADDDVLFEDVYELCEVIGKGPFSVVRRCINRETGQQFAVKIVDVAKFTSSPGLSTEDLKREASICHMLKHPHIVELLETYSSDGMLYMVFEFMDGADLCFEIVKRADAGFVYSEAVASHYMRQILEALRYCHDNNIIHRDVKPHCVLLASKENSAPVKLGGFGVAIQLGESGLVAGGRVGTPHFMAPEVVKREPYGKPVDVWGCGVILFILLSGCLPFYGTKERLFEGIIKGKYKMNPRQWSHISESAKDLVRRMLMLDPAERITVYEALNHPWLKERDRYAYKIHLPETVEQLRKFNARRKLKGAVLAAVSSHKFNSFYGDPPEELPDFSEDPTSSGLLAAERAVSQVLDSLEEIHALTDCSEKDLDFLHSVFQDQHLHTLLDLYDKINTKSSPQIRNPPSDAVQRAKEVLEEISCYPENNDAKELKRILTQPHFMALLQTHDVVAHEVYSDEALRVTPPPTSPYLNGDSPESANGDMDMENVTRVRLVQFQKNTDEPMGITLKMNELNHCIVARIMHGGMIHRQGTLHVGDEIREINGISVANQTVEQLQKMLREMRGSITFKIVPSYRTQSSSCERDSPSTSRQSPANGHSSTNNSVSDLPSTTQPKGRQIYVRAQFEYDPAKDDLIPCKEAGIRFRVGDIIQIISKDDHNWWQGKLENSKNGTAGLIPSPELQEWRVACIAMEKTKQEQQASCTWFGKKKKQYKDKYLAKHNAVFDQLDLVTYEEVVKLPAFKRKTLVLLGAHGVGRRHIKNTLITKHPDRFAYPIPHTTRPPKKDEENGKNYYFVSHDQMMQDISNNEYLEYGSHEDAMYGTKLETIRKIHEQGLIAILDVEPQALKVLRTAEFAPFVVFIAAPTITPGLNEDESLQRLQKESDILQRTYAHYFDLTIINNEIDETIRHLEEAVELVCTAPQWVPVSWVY

CDK4-cyclinD3 = molecular target: T8, CDK4-cyclinD3 (Homo sapiens, UniProt P11802)
T8 construct: purchased DiscoverX (KINOMEscan)

CSK = molecular target: T9, CSK (Homo sapiens, UniProt P41240)
T9 construct: purchased DiscoverX (KINOMEscan)

DYRK1B = DYRK1B (Homo sapiens, UniProt Q9Y463)
DYRK2 = molecular target: T10, DYRK2 (Homo sapiens, UniProt Q92630)
T10 sequence (Q92630 1-601): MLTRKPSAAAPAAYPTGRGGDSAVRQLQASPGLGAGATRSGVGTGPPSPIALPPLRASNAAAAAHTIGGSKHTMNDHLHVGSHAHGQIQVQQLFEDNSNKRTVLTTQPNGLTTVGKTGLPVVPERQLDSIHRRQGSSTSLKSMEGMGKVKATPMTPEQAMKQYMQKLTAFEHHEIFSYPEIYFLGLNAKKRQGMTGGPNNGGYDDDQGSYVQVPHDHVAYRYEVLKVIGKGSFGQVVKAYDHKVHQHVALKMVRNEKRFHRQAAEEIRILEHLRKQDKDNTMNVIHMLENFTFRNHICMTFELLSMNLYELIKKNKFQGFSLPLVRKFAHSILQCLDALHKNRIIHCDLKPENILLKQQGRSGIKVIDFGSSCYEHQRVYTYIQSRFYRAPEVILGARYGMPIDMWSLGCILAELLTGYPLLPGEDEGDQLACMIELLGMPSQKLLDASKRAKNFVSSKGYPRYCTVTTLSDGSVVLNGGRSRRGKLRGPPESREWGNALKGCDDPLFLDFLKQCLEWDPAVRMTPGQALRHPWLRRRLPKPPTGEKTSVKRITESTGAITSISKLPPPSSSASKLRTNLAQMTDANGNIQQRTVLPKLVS

EIF2AK1 = molecular target: T11, EIF2AK1 (Homo sapiens, UniProt Q9BQI3)
T11 construct: purchased DiscoverX (KINOMEscan)

EPHA1 = molecular target: T12, EPHA1 (Homo sapiens, UniProt P21709)
T12 construct: purchased DiscoverX (KINOMEscan)
T12 sequence (P21709 26-976): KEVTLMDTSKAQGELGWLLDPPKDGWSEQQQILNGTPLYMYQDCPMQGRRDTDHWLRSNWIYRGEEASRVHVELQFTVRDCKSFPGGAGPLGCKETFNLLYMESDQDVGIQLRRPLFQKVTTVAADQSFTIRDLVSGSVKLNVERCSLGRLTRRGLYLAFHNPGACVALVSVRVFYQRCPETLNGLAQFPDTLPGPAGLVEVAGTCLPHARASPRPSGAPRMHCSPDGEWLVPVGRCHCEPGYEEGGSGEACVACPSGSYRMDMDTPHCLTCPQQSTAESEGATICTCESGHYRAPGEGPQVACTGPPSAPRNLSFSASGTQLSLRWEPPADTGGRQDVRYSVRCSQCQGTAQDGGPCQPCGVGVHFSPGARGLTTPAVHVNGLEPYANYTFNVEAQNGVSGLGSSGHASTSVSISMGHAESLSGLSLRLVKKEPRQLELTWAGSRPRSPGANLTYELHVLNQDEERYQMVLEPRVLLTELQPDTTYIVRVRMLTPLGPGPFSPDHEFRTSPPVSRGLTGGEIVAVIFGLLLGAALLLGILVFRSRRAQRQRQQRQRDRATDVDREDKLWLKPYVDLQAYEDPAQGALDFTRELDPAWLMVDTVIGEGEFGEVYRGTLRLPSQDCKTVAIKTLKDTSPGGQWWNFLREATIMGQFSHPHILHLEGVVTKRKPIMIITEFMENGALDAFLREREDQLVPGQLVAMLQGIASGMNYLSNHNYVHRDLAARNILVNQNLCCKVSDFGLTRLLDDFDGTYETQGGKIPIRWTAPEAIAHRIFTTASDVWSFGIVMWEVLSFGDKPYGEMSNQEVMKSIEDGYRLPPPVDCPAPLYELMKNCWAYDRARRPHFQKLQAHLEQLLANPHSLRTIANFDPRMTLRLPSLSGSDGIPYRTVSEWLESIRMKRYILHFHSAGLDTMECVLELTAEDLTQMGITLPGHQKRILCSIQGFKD

EPHB1 = molecular target: T13, EPHB1 (Homo sapiens, UniProt P54762)
T13 construct: purchased DiscoverX (KINOMEscan)

FER = molecular target: T14, FER (Homo sapiens, UniProt P16591)
T14 construct: purchased DiscoverX (KINOMEscan)

FGFR4 = molecular target: T15, FGFR4 (Homo sapiens, UniProt P22455)
T15 construct: purchased DiscoverX (KINOMEscan)

FGR = molecular target: T16, FGR (Homo sapiens, UniProt P09769)
T16 construct: purchased DiscoverX (KINOMEscan)

GCN2(Kin.Dom.2,S808G) = molecular target: T17, GCN2(Kin.Dom.2,S808G) (Homo sapiens, UniProt Q9P2K8, S808G)
T17 construct: GCN2(Kin.Dom.2,S808G); purchased DiscoverX (KINOMEscan)

GSK3B = molecular target: T18, GSK3B (Homo sapiens, UniProt P49841)
T18 construct: purchased DiscoverX (KINOMEscan)
T18 sequence (P49841 whole entry): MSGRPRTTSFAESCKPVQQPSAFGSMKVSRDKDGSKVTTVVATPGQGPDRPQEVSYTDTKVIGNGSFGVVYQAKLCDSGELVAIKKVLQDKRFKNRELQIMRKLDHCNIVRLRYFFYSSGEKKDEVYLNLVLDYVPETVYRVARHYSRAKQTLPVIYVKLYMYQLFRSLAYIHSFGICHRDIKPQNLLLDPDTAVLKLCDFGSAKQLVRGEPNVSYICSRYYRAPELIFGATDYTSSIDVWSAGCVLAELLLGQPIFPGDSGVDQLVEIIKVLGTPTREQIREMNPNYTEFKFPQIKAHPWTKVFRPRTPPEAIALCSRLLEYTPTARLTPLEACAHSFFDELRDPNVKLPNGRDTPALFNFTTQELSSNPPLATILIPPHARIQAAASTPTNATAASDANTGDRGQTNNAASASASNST

MAP4K2 = molecular target: T19, MAP4K2 (Homo sapiens, UniProt Q12851)
T19 construct: purchased DiscoverX (KINOMEscan)

MARK4 = molecular target: T20, MARK4 (Homo sapiens, UniProt Q96L34)
T20 construct: purchased DiscoverX (KINOMEscan)
T20 sequence (Q96L34 whole entry): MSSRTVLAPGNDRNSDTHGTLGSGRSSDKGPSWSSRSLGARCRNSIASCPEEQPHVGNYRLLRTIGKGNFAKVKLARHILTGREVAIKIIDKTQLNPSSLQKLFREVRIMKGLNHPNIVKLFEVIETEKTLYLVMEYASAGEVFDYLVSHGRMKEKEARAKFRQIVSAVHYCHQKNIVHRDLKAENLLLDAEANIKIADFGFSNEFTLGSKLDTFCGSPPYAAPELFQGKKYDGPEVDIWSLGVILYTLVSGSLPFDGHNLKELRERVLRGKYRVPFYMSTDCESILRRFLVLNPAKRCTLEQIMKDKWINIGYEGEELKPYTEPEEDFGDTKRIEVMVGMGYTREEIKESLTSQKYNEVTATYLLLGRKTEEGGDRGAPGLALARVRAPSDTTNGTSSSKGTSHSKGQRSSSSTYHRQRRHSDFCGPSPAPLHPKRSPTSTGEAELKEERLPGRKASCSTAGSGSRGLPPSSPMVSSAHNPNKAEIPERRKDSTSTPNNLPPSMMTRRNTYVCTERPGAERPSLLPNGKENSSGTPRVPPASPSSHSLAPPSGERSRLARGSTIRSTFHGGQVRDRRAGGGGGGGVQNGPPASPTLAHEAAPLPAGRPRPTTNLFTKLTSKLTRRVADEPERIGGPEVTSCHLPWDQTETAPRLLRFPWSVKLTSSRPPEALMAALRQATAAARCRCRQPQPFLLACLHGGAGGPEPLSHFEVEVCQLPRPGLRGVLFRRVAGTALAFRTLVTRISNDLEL

MEK5 = molecular target: T21, MEK5 (Homo sapiens, UniProt Q13163)
T21 construct: purchased DiscoverX (KINOMEscan)

MST3 = molecular target: T22, MST3 (Homo sapiens, UniProt Q9Y6E0)
T22 construct: purchased DiscoverX (KINOMEscan)

MUSK = molecular target: T23, MUSK (Homo sapiens, UniProt O15146)
T23 construct: purchased DiscoverX (KINOMEscan)

NEK3 = molecular target: T24, NEK3 (Homo sapiens, UniProt P51956)
T24 construct: purchased DiscoverX (KINOMEscan)

SRPK1 = molecular target: T25, SRPK1 (Homo sapiens, UniProt Q96SB4)
T25 construct: purchased DiscoverX (KINOMEscan)

STK16 = molecular target: T26, STK16 (Homo sapiens, UniProt O75716)
T26 construct: purchased DiscoverX (KINOMEscan)
T26 sequence (O75716 whole entry): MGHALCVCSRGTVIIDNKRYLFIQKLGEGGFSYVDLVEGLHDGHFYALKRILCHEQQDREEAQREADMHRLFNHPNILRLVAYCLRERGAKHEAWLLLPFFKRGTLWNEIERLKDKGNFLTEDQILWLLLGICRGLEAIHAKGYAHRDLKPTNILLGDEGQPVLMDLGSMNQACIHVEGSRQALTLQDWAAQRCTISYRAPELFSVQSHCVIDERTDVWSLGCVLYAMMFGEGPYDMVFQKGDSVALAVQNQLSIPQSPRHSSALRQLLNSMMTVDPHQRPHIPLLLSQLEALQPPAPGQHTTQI

ULK3 = molecular target: T27, ULK3 (Homo sapiens, UniProt Q6PHR2)
T27 construct: purchased DiscoverX (KINOMEscan)
T27 sequence (Q6PHR2 whole entry): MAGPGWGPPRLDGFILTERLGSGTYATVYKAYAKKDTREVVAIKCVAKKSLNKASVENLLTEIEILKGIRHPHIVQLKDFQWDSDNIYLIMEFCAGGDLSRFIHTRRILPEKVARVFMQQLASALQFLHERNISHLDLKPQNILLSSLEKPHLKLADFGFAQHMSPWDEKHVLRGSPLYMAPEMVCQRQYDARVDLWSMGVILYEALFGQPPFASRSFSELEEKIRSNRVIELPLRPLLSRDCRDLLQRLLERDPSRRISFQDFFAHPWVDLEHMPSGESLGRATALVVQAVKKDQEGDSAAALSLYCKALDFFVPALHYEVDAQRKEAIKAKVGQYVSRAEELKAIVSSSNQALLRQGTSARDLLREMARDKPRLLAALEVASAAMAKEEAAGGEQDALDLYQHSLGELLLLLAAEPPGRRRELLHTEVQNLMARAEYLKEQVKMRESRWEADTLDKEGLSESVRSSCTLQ

VRK2 = molecular target: T28, VRK2 (Homo sapiens, UniProt Q86Y07)
T28 construct: purchased DiscoverX (KINOMEscan)

## COc1cc(/C=C2\N=C(N)NC2=O)ccc1O [Polyandrocarpamine A]
ABL1-phosphorylated
  Score: 100
ABL2
  Score: 87
ADCK3
  Score: 100
ADCK4
  Score: 98
ANKK1
  Score: 100
ASK2
  Score: 100
CASK
  Score: 100
CDK4-cyclinD3
  Score: 98
CSK
  Score: 100
DYRK1B
  Score: 25
DYRK2
  Score: 24
EIF2AK1
  Score: 100
EPHA1
  Score: 100
EPHB1
  Score: 89
FER
  Score: 100
FGFR4
  Score: 98
FGR
  Score: 100
GCN2(Kin.Dom.2,S808G)
  Score: 90
GSK3B
  Score: 100
MAP4K2
  Score: 97
MARK4
  Score: 100
MEK5
  Score: 78
MST3
  Score: 100
MUSK
  Score: 56
NEK3
  Score: 100
SRPK1
  Score: 100
STK16
  Score: 100
ULK3
  Score: 100
VRK2
  Score: 100
